This assay has as its target T1, xlσ1R E169A (Xenopus laevis, UniProt Q6DCU6, E169A).
T1 construct: hemagglutinin signal peptide (N); made in house; host or cells: Pichia pastoris GS115
T1 sequence (Q6DCU6 1-221 E169A): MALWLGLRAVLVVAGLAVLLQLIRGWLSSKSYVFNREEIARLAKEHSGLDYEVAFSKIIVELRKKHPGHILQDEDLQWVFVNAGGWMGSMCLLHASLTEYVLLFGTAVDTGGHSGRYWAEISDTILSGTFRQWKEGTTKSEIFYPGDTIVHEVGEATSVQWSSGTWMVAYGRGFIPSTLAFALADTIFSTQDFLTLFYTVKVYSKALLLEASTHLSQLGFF
In words: Microscale thermophoresis (MST) binding to xlσ1R E169A mutant. In general terms: Microscale thermophoresis detects binding through changes in fluorescence in a small temperature gradient.

We go through one compound from publication PMC11224282, “Insight into binding of endogenous neurosteroid ligands to the sigma-1 receptor” (Nature Communications, 2024).

Where two headings read alike, the source gives them in different places.

Broadly, the Kd is the concentration at which binding is half-saturated. For `CC(=O)[C@H]1CC[C@H]2[C@@H]3CCC4=CC(=O)CC[C@]4(C)[C@H]3CC[C@]12C` [progesterone], the dissociation constant Kd is, setting by setting: (MST, xlσ1R E169A, N = 3, mean (± SD), read-out: Kd (mean)) 0.98 ± 0.18 µM; (Source Data sheet Supplementary Table 3, E169A, mean of 3, read-out: Kd Mean) 0.99 µM; (Source Data sheet Supplementary Table 3, E169A, repeat 1, read-out: Kd Repeat 1) 0.92 µM; (Source Data sheet Supplementary Table 3, E169A, repeat 2, read-out: Kd Repeat 2) 1.19 µM; (Source Data sheet Supplementary Table 3, E169A, repeat 3, read-out: Kd Repeat 3) 0.85 µM.
